Results taken from patent US12486253B2, “Therapeutics for the degradation of mutant BRAF” (C4 THERAPEUTICS, INC., priority 2021, dated 2025).
Counter-ions that a name gives are not always drawn. Like-named read-outs stand apart in the source and are kept apart here.

Target: BRAF V600E (Homo sapiens, UniProt P15056, V600E)
Test: HiBiT cellular BRAF^V600E degradation assay
Type: cell-based
Conditions: for DC50: concentration at which 50% of total cellular BRAF^V600E is degraded; for Emax: read-out: HiBit 24 h Emax
[1] = A375.10 cells, 24 h, residual protein remaining in the cell

BRAF V600E, sequence (P15056 whole entry V600E): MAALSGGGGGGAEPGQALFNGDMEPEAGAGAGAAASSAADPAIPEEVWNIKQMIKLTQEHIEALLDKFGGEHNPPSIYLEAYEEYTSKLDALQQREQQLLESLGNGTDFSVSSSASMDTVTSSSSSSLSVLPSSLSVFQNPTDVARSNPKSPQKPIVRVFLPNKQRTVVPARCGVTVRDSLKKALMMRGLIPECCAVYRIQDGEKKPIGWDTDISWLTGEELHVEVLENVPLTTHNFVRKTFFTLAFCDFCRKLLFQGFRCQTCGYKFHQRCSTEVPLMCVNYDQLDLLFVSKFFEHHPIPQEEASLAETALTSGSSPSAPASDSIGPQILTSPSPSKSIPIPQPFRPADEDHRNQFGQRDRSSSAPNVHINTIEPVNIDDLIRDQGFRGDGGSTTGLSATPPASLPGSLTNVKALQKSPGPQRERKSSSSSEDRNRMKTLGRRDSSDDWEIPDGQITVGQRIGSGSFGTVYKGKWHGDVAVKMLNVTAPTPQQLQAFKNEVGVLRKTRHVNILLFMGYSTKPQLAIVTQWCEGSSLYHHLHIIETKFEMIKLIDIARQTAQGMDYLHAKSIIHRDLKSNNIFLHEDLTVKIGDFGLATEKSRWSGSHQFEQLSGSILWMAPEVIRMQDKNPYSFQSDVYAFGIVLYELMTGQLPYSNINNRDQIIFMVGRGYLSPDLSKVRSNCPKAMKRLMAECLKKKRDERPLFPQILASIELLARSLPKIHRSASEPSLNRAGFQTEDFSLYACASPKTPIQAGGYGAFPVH

Compound	DC50 (A375.10 cells, 24 h) [nM]	Emax [1] [%]	Emax [%]
CCN(C)S(=O)(=O)Nc1ccc(F)c(Oc2ccc3ncn(-c4cnc(N5CCN(C(=O)CC6(O)CCN(c7cc8c(cc7F)c(N7CCC(=O)NC7=O)nn8C)CC6)CC5)nc4)c(=O)c3c2)c1C#N [Example 199, 6-[2-cyano-3-[[ethyl(methyl)sulfamoyl]amino]-6-fluorophenoxy]-3-[2-[4-[2-[1-[3-(2,4-dioxo-1,3-diazinan-1-yl)-5-fluoro-1-methylindazol-6-yl]-4-hydroxypiperidin-4-yl]acetyl]piperazin-1-yl]pyrimidin-5-yl]-4-oxoquinazoline]	21.7	27.9	
N#Cc1c(NS(=O)(=O)C2CCCC2)ccc(F)c1Oc1ccc2ncn(CCC3CCN(C(=O)CN4CCC(c5ccc(NC6CCC(=O)NC6=O)cc5)CC4)CC3)c(=O)c2c1 (centres unmarked) [Example A3, N-[2-cyano-3-[3-[2-[1-[2-[4-[4-[(2,6-dioxo-3-piperidyl)amino]phenyl]-1-piperidyl]acetyl]-4-piperidyl]ethyl]-4-oxo-quinazolin-6-yl]oxy-4-fluoro-phenyl]cyclopentanesulfonamide 2,2,2-trifluoroacetic acid salt]	242	24	
CCN(C)S(=O)(=O)Nc1ccc(F)c(Oc2ccc3ncn(CCCC4CCN(CC(=O)N5CCC(c6ccc(NC7CCC(=O)NC7=O)cc6)CC5)CC4)c(=O)c3c2)c1C#N (centres unmarked) [Example 7, 6-[2-cyano-3-[[ethyl(methyl)sulfamoyl]amino]-6-fluorophenoxy]-3-[3-[1-[2-[4-[4-[(2,6-dioxopiperidin-3-yl)amino]phenyl]piperidin-1-yl]-2-oxoethyl]piperidin-4-yl]propyl]-4-oxoquinazoline]	42.2	15.2	
CCN(C)S(=O)(=O)Nc1ccc(F)c(Oc2ccc3ncn(C4CCC5(CC4)CCN(C(=O)CN4CCN(c6cc7c(cc6F)c(N6CCC(=O)NC6=O)nn7C)CC4)CC5)c(=O)c3c2)c1C#N [Example 163, 9-[6-[2-cyano-3-[[ethyl(methyl)sulfamoyl]amino]-6-fluorophenoxy]-4-oxoquinazolin-3-yl]-3-[2-[4-[3-(2,4-dioxo-1,3-diazinan-1-yl)-5-fluoro-1-methylindazol-6-yl]piperazin-1-yl]acetyl]-3-azaspiro[5.5]undecane]	27.6	16.2	
Cn1nc(N2CCC(=O)NC2=O)c2cc(F)c(N3CCC(O)(CC(=O)N4CCC5(CC4)C[C@@H](n4cnc6ccc(Oc7c(F)ccc(NS(=O)(=O)C8CCC8)c7C#N)cc6c4=O)CO5)CC3)cc21 [Example 198, N-[2-cyano-3-[3-[(3R)-8-[2-[1-[3-(2,4-dioxo-1,3-diazinan-1-yl)-5-fluoro-1-methylindazol-6-yl]-4-hydroxypiperidin-4-yl]acetyl]-1-oxa-8-azaspiro[4.5]decan-3-yl]-4-oxoquinazolin-6-yl]oxy-4-fluorophenyl]cyclobutanesulfonamide]	28.7	28.1	
CCN(C)S(=O)(=O)Nc1ccc(F)c(Oc2ccc3ncn([C@H]4COC5(CCN(C(=O)CN6CCN(c7ccc(NC8CCC(=O)NC8=O)cc7F)CC6)CC5)C4)c(=O)c3c2)c1C#N (stereo partly drawn) [Example 50, (3R)-3-[6-[2-cyano-3-[[ethyl(methyl)sulfamoyl]amino]-6-fluorophenoxy]-4-oxoquinazolin-3-yl]-8-[2-[4-[4-[(2,6-dioxopiperidin-3-yl)amino]-2-fluorophenyl]piperazin-1-yl]acetyl]-1-oxa-8-azaspiro[4.5]decane]	128	13.4	
CO[C@@H]1CCN(S(=O)(=O)Nc2ccc(F)c(Oc3ccc4ncn(-c5cnc(N6CCN(C(=O)CN7CCC(c8ccc(N[C@H]9CCC(=O)NC9=O)cc8F)CC7)CC6)nc5)c(=O)c4c3)c2C#N)C1 [Example 96, (3R)—N-[2-cyano-3-[3-[2-[4-[2-[4-[4-[[(3S)-2,6-dioxopiperidin-3-yl]amino]-2-fluorophenyl]piperidin-1-yl]acetyl]piperazin-1-yl]pyrimidin-5-yl]-4-oxoquinazolin-6-yl]oxy-4-fluorophenyl]-3-methoxypyrrolidine-1-sulfonamide]	9.91		8.43
CCN(C)S(=O)(=O)Nc1ccc(F)c(Nc2ccc3ncn([C@H]4COC5(CCN(C(=O)CC6(O)CCN(c7cc8c(cc7F)c(N7CCC(=O)NC7=O)nn8C)CC6)CC5)C4)c(=O)c3c2F)c1C#N (single isomer, unassigned) [Example 184]	8.55	18	
CCN(C)S(=O)(=O)Nc1ccc(F)c(Oc2ccc3ncn([C@H]4COC5(CCC(N6CCC(c7cc8c(cc7F)c(N7CCC(=O)NC7=O)nn8C)CC6)CC5)C4)c(=O)c3c2)c1C#N (stereo partly drawn) [Example 200, 6-[2-cyano-3-[[ethyl(methyl)sulfamoyl]amino]-6-fluorophenoxy]-3-[(3R)-8-[4-[3-(2,4-dioxo-1,3-diazinan-1-yl)-5-fluoro-1-methylindazol-6-yl]piperidin-1-yl]-1-oxaspiro[4.5]decan-3-yl]-4-oxoquinazoline]	15.9	26.9	
CCN(C)S(=O)(=O)Nc1ccc(F)c(Oc2ccc3ncn(CCCC4CCN(C(=O)CN5CCC(c6ccc(NC7CCC(=O)NC7=O)cc6)CC5)CC4)c(=O)c3c2)c1C#N (centres unmarked) [Example 4, 6-[2-cyano-3-[[ethyl(methyl)sulfamoyl]amino]-6-fluorophenoxy]-3-[3-[1-[2-[4-[4-[(2,6-dioxopiperidin-3-yl)amino]phenyl]piperidin-1-yl]acetyl]piperidin-4-yl]propyl]-4-oxoquinazoline]	28.6	10.8	

The next lines start with results.

DC50 (A375.10 cells, 24 h) [nM]	Emax [1] [%]	Compound	Emax [%]
47	10.5	CCN(C)S(=O)(=O)Nc1ccc(F)c(Oc2ccc3ncc(C4CCC5(CCN(C(=O)CN6CCC(c7ccc(NC8CCC(=O)NC8=O)cc7F)CC6)CC5)C4)nc3c2)c1C#N (centres unmarked) [Example 220, 7-[2-cyano-3-[[ethyl(methyl)sulfamoyl]amino]-6-fluorophenoxy]-2-[8-[2-[4-[4-[(2,6-dioxopiperidin-3-yl)amino]-2-fluorophenyl]piperidin-1-yl]acetyl]-8-azaspiro[4.5]decan-3-yl]quinoxaline]	
50.7	14	N#Cc1c(NS(=O)(=O)N2CCC(F)(F)C2)ccc(F)c1Oc1ccc2ncn(-c3cnc(N4CCN(C(=O)CN5CCC(c6ccc(N[C@@H]7CCC(=O)NC7=O)cc6F)CC5)CC4)nc3)c(=O)c2c1 [Example 123, N-[2-cyano-3-[3-[2-[4-[2-[4-[4-[[(3R)-2,6-dioxopiperidin-3-yl]amino]-2-fluorophenyl]piperidin-1-yl]acetyl]piperazin-1-yl]pyrimidin-5-yl]-4-oxoquinazolin-6-yl]oxy-4-fluorophenyl]-3,3-difluoropyrrolidine-1-sulfonamide]	
49.3	13.1	CCN(C)S(=O)(=O)Nc1ccc(F)c(Oc2ccc3ncn(CCCC4CCN(C(=O)CN5CCC(c6ccc(C7CCC(=O)NC7=O)cc6F)CC5)CC4)c(=O)c3c2)c1C#N (centres unmarked) [Example 5, 6-[2-cyano-3-[[ethyl(methyl)sulfamoyl]amino]-6-fluorophenoxy]-3-[3-[1-[2-[4-[4-(2,6-dioxopiperidin-3-yl)-2-fluorophenyl]piperidin-1-yl]acetyl]piperidin-4-yl]propyl]-4-oxoquinazoline]	
34.2	25.1	CCN(C)S(=O)(=O)Nc1ccc(F)c(Oc2ccc3ncn(-c4cnc(N5CCN(C(=O)CN6CCC(c7ccc(N[C@@H]8CCC(=O)NC8=O)cc7F)CC6)CC5)nc4)c(=O)c3c2O)c1C#N [Example 137, 6-[2-cyano-3-[[ethyl(methyl)sulfamoyl]amino]-6-fluorophenoxy]-3-[2-[4-[2-[4-[4-[[(3R)-2,6-dioxopiperidin-3-yl]amino]-2-fluorophenyl]piperidin-1-yl]acetyl]piperazin-1-yl]pyrimidin-5-yl]-5-hydroxy-4-oxoquinazoline]	
50.1	13.2	CCN(C)S(=O)(=O)Nc1ccc(F)c(Oc2ccc3ncn([C@H]4COC5(CCN(C(=O)CN6CCCC(c7ccc(NC8CCC(=O)NC8=O)cc7F)CC6)CC5)C4)c(=O)c3c2)c1C#N (stereo partly drawn) [Example 76, (3R)-3-[6-[2-cyano-3-[[ethyl(methyl)sulfamoyl]amino]-6-fluorophenoxy]-4-oxoquinazolin-3-yl]-8-[2-[4-[4-[(2,6-dioxopiperidin-3-yl)amino]-2-fluorophenyl]azepan-1-yl]acetyl]-1-oxa-8-azaspiro[4.5]decane]	
18.7	11.3	CCN(C)S(=O)(=O)Nc1ccc(F)c(Oc2ccc3ncn([C@@H]4CCC5(CCN(C(=O)CN6CCC(c7ccc(N[C@H]8CCC(=O)NC8=O)cc7F)CC6)CC5)C4)c(=O)c3c2)c1C#N [Example 45, 6-[2-cyano-3-[[ethyl(methyl)sulfamoyl]amino]-6-fluorophenoxy]-3-[(3R)-8-[2-[4-[4-[[(3S)-2,6-dioxopiperidin-3-yl]amino]-2-fluorophenyl]piperidin-1-yl]acetyl]-8-azaspiro[4.5]decan-3-yl]-4-oxoquinazoline]	
26.2	8.27	CCN(C)S(=O)(=O)Nc1ccc(F)c(Oc2ccc3ncn(CCC4(F)CCN(C(=O)CN5CCC(c6ccc(NC7CCC(=O)NC7=O)cc6F)CC5)CC4)c(=O)c3c2)c1C#N (centres unmarked) [Example 13, 6-[2-cyano-3-[[ethyl(methyl)sulfamoyl]amino]-6-fluorophenoxy]-3-[2-[1-[2-[4-[4-[(2,6-dioxopiperidin-3-yl)amino]-2-fluorophenyl]piperidin-1-yl]acetyl]-4-fluoropiperidin-4-yl]ethyl]-4-oxoquinazoline]	
20.1	12.9	CCN(C)S(=O)(=O)Nc1ccc(F)c(Oc2ccc3ncn([C@H]4CCC5(CCN(C(=O)CN6CCC(c7ccc(NC8CCC(=O)NC8=O)cc7F)CC6)CC5)C4)c(=O)c3c2Cl)c1C#N (single isomer, unassigned) [Example 79]	
8.13	7.08	CCN(C)S(=O)(=O)Nc1ccc(F)c(Oc2ccc3ncn([C@H]4CCC5(CCN(C(=O)CN6CCC(c7ccc(NC8CCC(=O)NC8=O)cc7F)CC6)CC5)C4)c(=O)c3c2)c1C#N (single isomer, unassigned) [Example 40]	
